Measured values from US6635615B1, “Stable salts of S-adenosyl-l-methionine” (priority 1999, dated 2003).
One block for each molecule: values may come before it.

Assays:
[1] = Stability on storage at room temperature, HPLC analysis of SAM-e concentration; assay type: physicochemical
Text: (§1) SAM-e-1, 4-butane-disulphonate and chitosan salt of SAM-e 1, 4-butane-disulphonate were stored at room temperature, in a closed, clear glass vial at constant humidity. HPLC analysis done according to Bottligleri, T. (1990) Isocratic high performance liquid chromatographic analysis of S-adenosylmethionine and S-adenosylhomocysteine in animal tissues: the effect of exposure to nitrous oxide. Biomed Chromatogr, 4(6):239-41.
Stability study-of polycation (chitosan) salt of SAM-e tosylate
as §1, with “SAM-e tosylate” for “SAM-e-1, 4-butane-disulphonate”, “tosylate” for “1, 4-butane-disulphonate”

[2] = oral; alcoholic liver cirrhosis; compared with a placebo treated group; cited from earlier work
[3] = preliminary study; cited from earlier work
[4] = oral; patients with and without liver disease; cited from earlier work
[5] = oral; patients with intrahepatic cholestasis; cited from earlier work
[6] = oral; short term trial; cited from earlier work

deteriorated by (over the period of time) ([1]; Example 11, text, room temperature storage Dec. 28, 1999 to Apr. 4, 2000): 92.9%
Analysis: Dec. 28, 1999 Concentration 0.5 mg/ml 1:125 ([1]; Example 11, first analysis Dec. 28, 1999, 0.5 mg/ml, dilution 1:125, HPLC): 3492 nmol/L
Analysis: Apr. 4, 2000 Concentration 0.5 mg/ml 1:125 ([1]; Example 11, second analysis Apr. 4, 2000, stored at room temperature, closed clear glass vial, constant humidity, 0.5 mg/ml, 1:125): 247.9 nmol/L
Structure (SMILES): C[S+](CC[C@H](N)C(=O)O)C[C@H]1O[C@@H](n2cnc3c(N)ncnc32)[C@H](O)[C@@H]1O.Cc1ccc(S(=O)(=O)[O-])cc1 (stereo partly drawn) [SAM-e tosylate]

Structure (SMILES): C[S+](CC[C@H](N)C(=O)[O-])C[C@H]1O[C@@H](n2cnc3c(N)ncnc32)[C@H](O)[C@@H]1O (stereo partly drawn) [SAM-e, S-adenosyl-1-methionine]
overall mortality and/or progression to liver transplant [2]: 29% vs 12%
cognitive effect in patients with Alzheimer's disease [3]: cognitive improvement
liver glutathione levels [4]: increases in liver glutathione levels
pruritus and biochemical markers of cholestasis [5]: improvements in both the pruritus as well as the biochemical markers of cholestasis
clinical effect in primary fibromyalgia [6]: significant improvement

Structure (SMILES): C[S+](CC[C@H](N)C(=O)[O-])C[C@H]1O[C@@H](n2cnc3c(N)ncnc32)[C@H](O)[C@@H]1O.O=S(=O)(O)CCCCS(=O)(=O)O (stereo partly drawn) [SAM-e-1,4-butane-disulphonate]
deteriorated by (over the period of time) ([1]; Example 10, text, room temperature storage May 11, 2000 to Aug. 22, 2000): 43%
% Change ([1]; Example 10, May 11, 2000 to Aug. 22, 2000, room temperature, closed clear glass vial, constant humidity): −43.9%
Analysis: May 11, 2000 Concentration 1:500 ([1]; Example 10, first analysis May 11, 2000, dilution 1:500, HPLC): 1417.96 nmol/L
Analysis: Aug. 22, 2000 Concentration 1:500 ([1]; Example 10, second analysis Aug. 22, 2000, stored at room temperature, closed clear glass vial, constant humidity, dilution 1:500): 794.41 nmol/L
